Assay results taken from article PMC6105845, “Nucleotide Prodrug Containing a Nonproteinogenic Amino Acid To Improve Oral Delivery of a Hepatitis C Virus Treatment” (Antimicrobial Agents and Chemotherapy, 2018).

Molecular target: HINT1 (Homo sapiens, UniProt P49773)
Test: P-N bond cleavage of metabolite X by HINT1
Format: biochemical
Procedure: Biochemical assays studying prodrug cleavage have been described previously ([8]). In brief, the cleavages of GS2 by CATA, CES1, CES2, and HINT1 were assessed in vitro. The reaction substrates and products were monitored over time by high-performance liquid chromatography (HPLC).

HINT1, sequence (P49773 whole entry): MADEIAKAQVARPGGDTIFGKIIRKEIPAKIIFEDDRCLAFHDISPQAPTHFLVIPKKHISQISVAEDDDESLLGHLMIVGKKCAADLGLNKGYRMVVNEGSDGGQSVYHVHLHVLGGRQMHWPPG

SMILES	HINT1 specific activity higher than toward metabolite X of GS-6620	HINT1 specific activity, P-N bond cleavage
CC(C)(NP(=O)(O)OC[C@H]1O[C@@](C#N)(c2ccc3c(N)ncnn23)[C@](C)(O)[C@@H]1O)C(=O)O [metabolite X of GS2]	5.7 fold	341 pmol/min/µg
C[C@H](NP(=O)(O)OC[C@H]1O[C@@](C#N)(c2ccc3c(N)ncnn23)[C@](C)(O)[C@@H]1O)C(=O)O [metabolite X of GS-6620]		60 pmol/min/µg
